# Columns and labels:
# [1] = system: soil-groundwater slurries; experiment: Aerobic microcosm biodegradation of BTEX, isobutanol and ethanol
# Procedure: Soil and groundwater for laboratory microcosm testing were collected from within Site 60 at Vandenberg Air Force Base, CA. The site has a history of gasoline contamination, but has undergone an extensive cleanup program. Collected groundwater was containerized in sterile stainless steel soda kegs (18.5 L) under nitrogen headspace. […] The core samples in acetate sleeves were capped and sealed in the field to minimize exposure to air, shipped overnight on ice to the laboratory, and stored at 4° C.
# Soil was removed from the acetate sleeves in an anaerobic chamber (Coy Laboratory Products, Inc., Grass Lake, Mich.) and the first 10 cm of the core ends that may have been exposed to oxygen were discarded. Collected soil consisted of silty sand with some gravel and larger stones. The soil was passed through a 0.95 cm sieve, homogenized, and then stored in amber glass jars with Teflon®-lined caps at 4° C. until microcosm setup was complete. (NA=Not Analyzed; * SVOC (semi volatile organic compound) detections include 0.008 mg L^−1 phenol and 0.003 mg L^−1 bis(2-ethylhexyl) phthalate; ** standard units).
# Final transformation products were not determined. For comparison, one treatment was prepared using ethanol instead of isobutanol. […] Controls were amended with mercuric chloride and formaldehyde. BTEX and alcohol concentrations were selected to represent (approximately) potential groundwater concentrations that would be observed within a source area and in the near downgradient plume. The greater ethanol concentrations relative to the isobutanol concentrations used in this study were intended to reflect effective solubilities of isobutanol and ethanol in groundwater. […] The SET 1 treatments were prepared within 4 days of sample collection whereas SET 2 treatments were prepared after approximately 2 months of soil and groundwater storage.
# Microcosms were prepared by placing 40 g of site soil into each of 54 glass serum bottles (approximate volume 160 mL each). BTEX and alcohol (isobutanol or ethanol) were added to the treatment bottles to attain the target concentrations shown in Tables 2A and B. Bottles were filled with groundwater so as to leave 10 mL of headspace. Controls were amended with mercuric chloride (700 mg/L in bottles) to inhibit microbial activity. Controls were subsequently amended with formaldehyde (1% v/v in bottles) after 4 days to limit microbial activity. Treatments were prepared with a minimum of 3 and up to 8 replicates each.
# The prepared microcosms were incubated at 15° C. on a rotary shaker operating at 100 rpm. Headspace in each of the bottles was monitored for BTEX and oxygen. Aqueous BTEX concentrations were calculated by applying Henry's Law. Samples of the aqueous phase were analyzed for isobutanol and ethanol, as well as potential isobutanol degradation products (iso-butylaldehyde and iso-butyric acid). The headspace of each bottle was periodically flushed with oxygen gas to maintain aerobic conditions in the bottles. The headspace of each control bottle also was flushed with oxygen to evaluate potential losses of BTEX due to the flushing process.
# Headspace gases were analyzed for BTEX by using a Varian CP-3900 gas chromatograph equipped with an FID and a Restek QSPLOT column (30 m length, 0.32 mm diameter) with an injector temperature of 260° C. and a detector temperature of 290° C. Headspace oxygen was analyzed by using a Varian CP-3800 gas chromatograph equipped with a Pulsed Discharge Helium Ionization Detector (PDHID) and both a CP-Molsiene 5A column and a CP-ParaBond Q column (both 10 m length, 0.32 mm diameter), an injector temperature of 210° C., and a detector temperature of 240° C. […] Aqueous alcohol concentrations (as well as iso-butylaldehyde and iso-butyric acid) were measured by first collecting a 130 μL subsample preserved with mercuric chloride.
# [2] = Water tolerance and phase separation tests on isobutanol-ethanol-gasoline blends; format: physicochemical; conditions: E10 gasoline
# Procedure: Scoping water tolerance and phase separation tests were conducted on isobutanol-ethanol-gasoline blends at 65° F. […] Concentrations in both the hydrocarbon and aqueous phase were determined by GC.
# [3] = Treatment 1 (Low BTEX), aerobic, 15° C.
# [4] = Treatment 2 (High BTEX), aerobic
# [5] = Treatment 3 (Low BTEX + IBA 68 μM), aerobic
# [6] = Treatment 4 (High BTEX + IBA 3,400 μM), SET 1, aerobic
# [7] = Treatment 5 (High BTEX + IBA 3,400 μM), SET 2, aerobic
# [8] = Treatment 6 (High BTEX + Ethanol 11,000 μM), aerobic
# [9] = higher concentration treatments, aerobic (isobutanol: data of Treatments 4 and 5; ethanol treatment)
Compound,"Lag [1, 3]","Lag [1, 4]","Lag [1, 5]","Lag [1, 6]","Lag [1, 7]","Lag [1, 8]","observed first-order biodegradation rate constant [1, 9]","rate constant in lower concentration treatment relative to isobutanol or ethanol in higher concentration treatments ([1]; Treatment 3 vs higher concentration treatments, aerobic)","observed first-order biodegradation rate constant ([1]; lower concentration treatment (Treatment 3), aerobic)","effect of increased levels on aqueous phase volume during phase separation ([2]; 1.3% and 2.6% water, FIG. 11)",effect on amount of ethanol extracted into the aqueous phase ([2]; FIG. 12)
"c1ccccc1 [Benzene, benzene]",0 days,6 days,0 days,1 days,1 days,1 days,,,,,
"CCc1ccccc1 [Ethylbenzene, ethylbenzene]",2 days,5 days,1 days,0 days,1 days,1 days,,,,,
"Cc1ccccc1 [Toluene, toluene]",0 days,5 days,0 days,5 days,1 days,1 days,,,,,
"CCO [ethanol, reference compound]",,,,,,,0.074 ± 0.0023 day⁻¹,,,,
CC(C)CO [isobutanol],,,,,,,0.081 ± 0.0044 day⁻¹,approximately 3.5 times,0.28 ± 0.054 day⁻¹,reduced aqueous phase volume,acts as a co-solvent for ethanol
total xylenes,2 days,0 days,1 days,0 days,1 days,1 days,,,,,

# Reference: US20110283604A1, “BIODEGRADATION OF RENEWABLE HYDROCARBON FUEL BLENDS” (BUTAMAX(TM) ADVANCED BIOFUELS LLC, priority 2010, published 2011)
